The record followed here is patent US8841257B2, “Inhibitors of STAT3 and uses thereof” (Board of Regents, The University of Texas System, priority 2009, dated 2014).

SMILES strings stand for the structures. Entries after “also recorded” stand apart in the source; their conditions may differ.

T1 sequence (P40763 whole entry): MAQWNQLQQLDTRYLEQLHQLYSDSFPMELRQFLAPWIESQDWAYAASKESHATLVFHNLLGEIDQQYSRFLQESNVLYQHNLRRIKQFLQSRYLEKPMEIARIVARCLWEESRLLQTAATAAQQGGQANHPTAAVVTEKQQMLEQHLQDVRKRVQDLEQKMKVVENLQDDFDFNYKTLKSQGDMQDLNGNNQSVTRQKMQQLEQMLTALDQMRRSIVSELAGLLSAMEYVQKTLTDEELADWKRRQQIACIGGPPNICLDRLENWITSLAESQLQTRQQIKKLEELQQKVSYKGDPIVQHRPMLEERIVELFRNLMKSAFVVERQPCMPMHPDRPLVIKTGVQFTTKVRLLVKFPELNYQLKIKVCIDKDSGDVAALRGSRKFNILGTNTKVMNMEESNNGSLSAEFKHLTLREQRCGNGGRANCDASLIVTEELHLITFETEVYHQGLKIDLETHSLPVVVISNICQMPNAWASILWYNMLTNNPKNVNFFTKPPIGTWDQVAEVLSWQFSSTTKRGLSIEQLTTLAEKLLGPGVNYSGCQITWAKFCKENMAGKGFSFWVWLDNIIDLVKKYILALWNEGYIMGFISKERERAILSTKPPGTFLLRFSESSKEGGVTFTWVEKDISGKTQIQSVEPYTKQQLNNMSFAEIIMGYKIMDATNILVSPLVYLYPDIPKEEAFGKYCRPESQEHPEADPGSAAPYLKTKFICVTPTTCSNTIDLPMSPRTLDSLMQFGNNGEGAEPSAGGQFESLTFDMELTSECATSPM

The first assay has as its target T1, STAT3 (Homo sapiens, UniProt P40763). The experiment in a line: Inhibition of Stat3 tyrosine705 phosphorylation in MDA-MB-468 cells. The class given is cell-based. Particulars: prodrug in DMSO, 2 h. Also noted: host or cells: MDA-MB-468 breast tumor cells. Here is the method: Inhibition of Stat3 tyrosine705 phosphorylation in MDA-MB-468 cells. MDA-MB-468 breast tumor cells (0.4×10^6) were plated onto 35 mm culture dishes and were allowed to grow overnight. Prodrugs were prepared as 10 mM stock solutions in DMSO and aliquots were added to the culture media to give the correct final concentrations. After 2 h the cells were washed with ice cold phosphate buffered saline. Washed cells were treated with lysis buffer (50 mM Hepes, pH 7.4, 150 mM NaCl, 1.5 mM MgCl2, 1 mM EGTA, 100 mM NaF, 10 mM sodium pyrophosphate, 10% glycerol, 1% Triton X-100, 1 mM PMSF, 1 mM Na3VO4, 10 μg/mL leupeptin and 10 μg/mL aprotinin). Cell-free detergent extracts were centrifuged at 15,000 rpm in a microcentriguge for 30 min at 4° C. and the protein concentrations of the supernatants determined. Aliquots containing 12 μg of protein were separated on 8% SDS-PAGE and were transferred to PVDF filters. The filters were blocked with 5% bovine serum albumin and were probed with pStat3^Y705 antibody followed by secondary antibody, whose signal was detected with an enhanced chemiluminescence kit (ECL, Amersham, Chicago, Ill.). Filters were stripped with stripping buffer (62.5 mM Tris, pH 6.8, 2% SDS, and 0.1 M 2-mercaptoethanol) at 50° C. for 30 min. Filters were then probed with total Stat3 antibody and visualized with chemiluminescence as above.
Consider `CCCC[C@H](NC(=O)/C=C(\C)c1ccc(C(F)(F)P(=O)(OCOC(=O)C(C)(C)C)OCOC(=O)C(C)(C)C)cc1)C(=O)N1C[C@@H]2CC2[C@@H]1C(=O)N[C@@H](CCC(N)=O)[C@@H](C)OCc1ccccc1` (stereo partly drawn) [Example 17, (2E)-3-[4-[[bis[(2,2-dimethyl-1-oxopropoxy)methoxy]phosphinyl]difluoromethyl]phenyl]-but-2-enoyl-norleucinyl-(2R,3S,4R)-methanoprolinyl-(4S,5R)-4-amino-5-benzyloxyhexamide], for which the “inhibition of Tyr705 phosphorylation of Stat3 (potency in words)” value is listed as “very weak inhibitors; also recorded: much less potent”.
Take `CCCC[C@H](NC(=O)/C=C(\C)c1ccc(C(F)(F)P(=O)(OCOC(=O)C(C)(C)C)OCOC(=O)C(C)(C)C)cc1)C(=O)N1C[C@@H]2CC2[C@@H]1C(=O)N[C@H](C)CCC(N)=O` (stereo partly drawn) [Example 19, (2E)-3-[4-[[bis[(2,2-dimethyl-1-oxopropoxy)methoxy]phosphinyl]difluoromethyl]phenyl]-but-2-enoyl-norleucinyl-(2R,3S,4R)-methanoprolinyl-(R)-4-aminopentamide]: the “inhibition of Tyr705 phosphorylation of Stat3 (potency in words)” value is on record as “very weak inhibitors; also recorded: much less potent”.
Same read-out and setting: next, `CCCC[C@H](NC(=O)/C=C(\C)c1ccc(C(F)(F)P(=O)(OCOC(=O)C(C)(C)C)OCOC(=O)C(C)(C)C)cc1)C(=O)N1CCC[C@H]1C(=O)N[C@H](C)CCC(N)=O` [Example 23, (2E)-3-[4-[[bis[(2,2-dimethyl-1-oxopropoxy)methoxy]phosphinyl]difluoromethyl]phenyl]-but-2-enoyl-norleucinyl-prolinyl-(R)-4-aminonentamide]: “inhibit phosphorylation of STAT3”; `CCCC[C@H](NC(=O)/C=C(\C)c1ccc(C(F)(F)P(=O)(OCOC(=O)C(C)(C)C)OCOC(=O)C(C)(C)C)cc1)C(=O)N1CC(F)(F)C[C@H]1C(=O)N[C@H](C)CCC(N)=O` [Example 24, (2E)-3-[4-[[bis[(2,2-dimethyl-1-oxopropoxy)methoxy]phosphinyl]difluoromethyl]phenyl]-but-2-enoyl-norleucinyl-4,4-difluoroprolinyl-(R)-4-aminopentamide]: “inhibit phosphorylation of STAT3”; `CCCC[C@H](NC(=O)/C=C(\C)c1ccc(C(F)(F)P(=O)(OCOC(=O)C(C)(C)C)OCOC(=O)C(C)(C)C)cc1)C(=O)N1CC(C)(C)C[C@H]1C(=O)N[C@H](C)CCC(N)=O` [Example 25, (2E)-3-[4-[[bis[(2,2-dimethyl-1-oxopropoxy)methoxy]phosphinyl]difluoromethyl]phenyl]-but-2-enoyl-norleucinyl-4,4-dimethylprolinyl-(R)-4-aminopentamide]: “inhibit phosphorylation of STAT3”.

Another assay deals with T1, STAT3. The experiment in a line: Inhibition of STAT3 phosphorylation in BT20 breast tumor cells (western blot). As to conditions: 5 μM; BT-20 cells. More on the design: endogenous in cells; host or cells: BT20 breast tumor cells. Type of assay: cell-based. The method, then: Inhibition of STAT3 in BT20 Breast Tumor Cells. General procedure: 35 mm petri dishes were plated with 300,000 BT20 cells in 2 mL RPMI1640 media containing 10% FBS, […], streptomycin, and glutamine. Prodrugs were dissolved in DMSO and were added to the cells with fresh media at varying concentrations. After 2 h the cells were washed with ice cold phosphate buffered saline. Washed cells were treated with lysis buffer (50 mM Hepes, pH 7.4, 150 mM NaCl, 1.5 mM MgCl2, 1 mM EGTA, 100 mM NaF, 10 mM sodium pyrophosphate, 10% glycerol, 1% Triton X-100, 1 mM PMSF, 1 mM Na3VO4, 10 μg/mL leupeptin and 10 μg/mL aprotinin). Cell-free detergent extracts were centrifuged at 15,000 rpm in a microcentriguge for 30 min at 4° C. and the protein concentrations of the supernatants determined. Aliquots containing 12 μg of protein were separated on 8% SDS-PAGE and were transferred to PVDF filters. The filters were blocked with 5% bovine serum albumin and were probed with pStat3^Y705 antibody followed by secondary antibody, whose signal was detected with an enhanced chemiluminescence kit (ECL, Amersham, Chicago, Ill.). Filters were stripped with stripping buffer (62.5 mM Tris, pH 6.8, 2% SDS, and 0.1 M 2-mercaptoethanol) at 50° C. for 30 min. Filters were then probed with total Stat3 antibody and visualized with chemiluminescence as above.
Because DMSO is toxic, other formulations were evaluated for potential use in animal models. The compound of Example 1 was dissolved in EtOH, 20% (w/v) Trappsol (hydroxypropyl β-cyclodextran, pharmaceutical grade), or a liposomal formulation to a concentration of 5 mM. These formulations were given to cells at 0.1, 0.5, and 5 μM concentrations. At two hours, cells were lysed and pSTAT3 levels were determined by Western Blot (FIG. 3). Different formulations have little effect on inhibition of STAT3. The compound of Example 1 was dissolved in DMSO, EtOH, Trappsol, or as a 10 mol % mixture in dimyristoylphosphatidyl choline and applied to BT20 cell in culture. After two hours, cells were lysed and pSTAT3 levels determined by Western blot. To prepare liposomes a solution of 1.0 mg of the compound of Example 1, 7.2 mg of DMPC, 0.41 mg of Tween 20 in 1.0 mL of tert-butanol was lyophilized. A control lipid formulation of 7.2 mg of DMPC and 0.41 mg of Tween 20 in 1.0 mL of tert-butanol was lyophilized. These samples were mixed with 236 μL of H2O and were vortexed and sonicated for 5 min.
The compounds are selective for STAT3 over STAT1 in BT20 breast tumor cells. BT20 cells prepared as above and were treated with 5 μM of the compound of Example 1 for two hours then were treated with 25 ng/mL of interferon γ (IFNγ). […] (FIG. 4, bottom panel).
Time course of inhibition of STAT3 phosphorylation in BT20 cells. BT20 cells were plated as above and treated with the compounds from Examples 1 and 6 and western blots were performed at varying time intervals.
For orientation: In western blotting, separated proteins are transferred to a membrane and probed.
For `C/C(=C\C(=O)N[C@H]1CCc2cccc3c2N(C1=O)[C@H](C(=O)N[C@H](C)CCC(N)=O)C3)c1ccc(OP(=O)(OCOC(=O)C(C)(C)C)OCOC(=O)C(C)(C)C)cc1` [Example 6, (2E)-3-[4-[[bis[(2,2-dimethyl-1-oxopropoxy)methoxy]phosphinyl]oxy]phenyl]-but-2-enoyl-Haic-(R)-4-aminopentamide], the “phosphorylation of STAT3 at the indicated time points” value is given as “inhibit the phosphorylation of STAT3”.
